Measurements: patent US5516759A, “LHRH antagonists having lactam groups at the N-terminus” (TAP Holdings Inc., priority 1994, dated 1996)
Where a SMILES comes first, the peptide text is derived from it. Side-chain parts run from the residue outwards. [ ]: non-standard residue; d: D form. The star is where a group is joined. d2Nal(N,N-C(O)(CH2)4) = O=C1CCCCN1[C@H](Cc1ccc2ccccc2c1)C(=O)*; d2Nal(N,N-(CH2)3CO) = O=C1CCCN1[C@H](Cc1ccc2ccccc2c1)C(=O)*; Shikimoyl = O=C(C1=C[C@@H](O)[C@@H](O)[C@H](O)C1)*; Acetyl(2-oxopyrrolidin-1-yl) = O=C1CCCN1CC(=O)*; dPhe(4-Cl) = N[C@H](Cc1ccc(Cl)cc1)C(=O)O; d1Nal = N[C@H](Cc1cccc2ccccc12)C(=O)O; d(hCit) = NC(=O)NCCCC[C@@H](N)C(=O)O; Lys(iPr) = CC(C)NCCCC[C@H](N)C(=O)O; NMeY = CN[C@@H](Cc1ccc(O)cc1)C(=O)O; dCit = NC(=O)NCCC[C@@H](N)C(=O)O; hArg = N=C(N)NCCCC[C@H](N)C(=O)O; d3Pal = N[C@H](Cc1cccnc1)C(=O)O; Nicotinoyl = O=C(c1cccnc1)*

Target: T1, LHRH (Rattus norvegicus, UniProt P30969)
T1 construct: endogenous in cells
T1 sequence (P30969 1-327): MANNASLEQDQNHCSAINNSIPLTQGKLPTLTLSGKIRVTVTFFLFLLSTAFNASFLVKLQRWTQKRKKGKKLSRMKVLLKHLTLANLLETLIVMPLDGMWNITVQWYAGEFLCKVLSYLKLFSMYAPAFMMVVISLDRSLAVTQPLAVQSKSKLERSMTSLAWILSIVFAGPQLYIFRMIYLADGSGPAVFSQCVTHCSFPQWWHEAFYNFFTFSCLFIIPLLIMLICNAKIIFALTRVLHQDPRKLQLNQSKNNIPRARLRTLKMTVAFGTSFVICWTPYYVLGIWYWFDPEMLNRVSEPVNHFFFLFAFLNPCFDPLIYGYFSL
Assay: in vitro test for LHRH antagonist potency (pA2)
Type: cell-based
Details: negative logarithm of the antagonist concentration required to shift the response curve produced by the agonist leuprolide to two-fold higher concentration
Protocol: Representative compounds of the present invention were evaluated in an in vitro test for LHRH antagonist potency (pA2). The test employed the method detailed in F. Haviv, et al. J. Med. Chem., 32:2340-2344 (1989). The values of pA2 are the negative logarithms of the concentration of the particular antagonist test compound required to shift the response curve produced by the agonist leuprolide to two-fold higher concentration. (Leuprolide is disclosed and claimed in U.S. Pat. No. 4,005,063.) Typically pA2 values of 9.5 or greater are indicative of good LHRH antagonist potency, with values of 10.0 or greater being preferred.

Compound | Kb
CC(C)C[C@H](NC(=O)[C@@H](CCCNC(N)=O)NC(=O)[C@H](Cc1ccc(O)cc1)N(C)C(=O)[C@H](CO)NC(=O)[C@@H](Cc1cccnc1)NC(=O)[C@@H](Cc1ccc(Cl)cc1)NC(=O)[C@@H](Cc1ccc2ccccc2c1)N1CCCC1=O)C(=O)N[C@@H](CCCNC(=N)N)C(=O)N1CCC[C@H]1C(=O)N[C@H](C)C(N)=O [Example 1, 5LactD2Nal^1 -D4ClPhe^2 -D3Pal^3 -Ser^4 -NMeTyr^5 -DCit^6 -Leu^7 -Arg^8 -Pro^9 -DAla^10 NH2] ({d2Nal(N,N-(CH2)3CO)}-[dPhe(4-Cl)][d3Pal]S[NMeY][dCit]LRP[dA]-NH2) | 0.00813 nM
CC(C)C[C@H](NC(=O)[C@@H](CCCCNC(=O)C1=C[C@@H](O)[C@@H](O)[C@H](O)C1)NC(=O)[C@H](Cc1ccc(O)cc1)N(C)C(=O)[C@H](CO)NC(=O)[C@@H](Cc1cccnc1)NC(=O)[C@@H](Cc1ccc(Cl)cc1)NC(=O)[C@@H](Cc1ccc2ccccc2c1)N1CCCC1=O)C(=O)N[C@@H](CCCNC(=N)N)C(=O)N1CCC[C@H]1C(=O)N[C@H](C)C(N)=O [Example 2, 5LactD2Nal^1 -D4ClPhe^2 -D3Pal^3 -Ser^4 -NMeTyr^5 -DLys(N-epsilon-Shik)^6 -Leu^7 -Arg^8 -Pro^9 -DAla^10 NH2] ({d2Nal(N,N-(CH2)3CO)}-[dPhe(4-Cl)][d3Pal]S[NMeY][dK](Shikimoyl)LRP[dA]-NH2) | 0.0263 nM
CC(C)C[C@H](NC(=O)[C@@H](CCCCNC(=O)CNC(=O)C1=C[C@@H](O)[C@@H](O)[C@H](O)C1)NC(=O)[C@H](Cc1ccc(O)cc1)N(C)C(=O)[C@H](CO)NC(=O)[C@@H](Cc1cccnc1)NC(=O)[C@@H](Cc1ccc(Cl)cc1)NC(=O)[C@@H](Cc1ccc2ccccc2c1)N1CCCC1=O)C(=O)N[C@@H](CCCNC(=N)N)C(=O)N1CCC[C@H]1C(=O)N[C@H](C)C(N)=O [Example 3, 5LactD2Nal^1 -D4ClPhe^2 -D3Pal^3 -Ser^4 -NMeTyr^5 -DLys(N-epsilon-Gly-Shik)^6 -Leu^7 -Arg^8 -Pro^9 -DAla^10 NH2] ({d2Nal(N,N-(CH2)3CO)}-[dPhe(4-Cl)][d3Pal]S[NMeY][dK]([Gly-Shikimoyl])LRP[dA]-NH2) | 0.0209 nM
CC(C)C[C@H](NC(=O)[C@@H](CCCCNC(=O)C1=C[C@@H](O)[C@@H](O)[C@H](O)C1)NC(=O)[C@H](Cc1ccc(O)cc1)N(C)C(=O)[C@H](CO)NC(=O)[C@@H](Cc1cccnc1)NC(=O)[C@@H](Cc1ccc(Cl)cc1)NC(=O)[C@@H](Cc1ccc2ccccc2c1)N1CCCC1=O)C(=O)N[C@@H](CCCCNC(=N)N)C(=O)N1CCC[C@H]1C(=O)N[C@H](C)C(N)=O [Example 4, 5LactD2Nal^1 -D4ClPhe^2 -D3Pal^3 -Ser^4 -NMeTyr^5 -DLys(N-epsilon-Shik)^6 -Leu^7 -Harg^8 -Pro^9 -DAla^10 NH2] ({d2Nal(N,N-(CH2)3CO)}-[dPhe(4-Cl)][d3Pal]S[NMeY][dK](Shikimoyl)L[hArg]P[dA]-NH2) | 0.00692 nM
CC(C)C[C@H](NC(=O)[C@@H](CCCCNC(=O)CNC(=O)C1=C[C@@H](O)[C@@H](O)[C@H](O)C1)NC(=O)[C@H](Cc1ccc(O)cc1)N(C)C(=O)[C@H](CO)NC(=O)[C@@H](Cc1cccnc1)NC(=O)[C@@H](Cc1ccc(Cl)cc1)NC(=O)[C@@H](Cc1ccc2ccccc2c1)N1CCCC1=O)C(=O)N[C@@H](CCCCNC(=N)N)C(=O)N1CCC[C@H]1C(=O)N[C@H](C)C(N)=O [Example 5, 5LactD2Nal^1 -D4ClPhe^2 -D3Pal^3 -Ser^4 -NMeTyr^5 -DLys(N-epsilon-Gly-Shik)^6 -Leu^7 -Harg^8 -Pro^9 -DAla^10 NH2] ({d2Nal(N,N-(CH2)3CO)}-[dPhe(4-Cl)][d3Pal]S[NMeY][dK]([Gly-Shikimoyl])L[hArg]P[dA]-NH2) | 0.00646 nM
CC(C)C[C@H](NC(=O)[C@@H](CCCCNC(=O)c1cccnc1)NC(=O)[C@H](Cc1ccc(O)cc1)N(C)C(=O)[C@H](CO)NC(=O)[C@@H](Cc1cccnc1)NC(=O)[C@@H](Cc1ccc(Cl)cc1)NC(=O)[C@@H](Cc1ccc2ccccc2c1)N1CCCC1=O)C(=O)N[C@@H](CCCCNC(C)C)C(=O)N1CCC[C@H]1C(=O)N[C@H](C)C(N)=O [Example 7, 5LactD2Nal^1 -D4ClPhe^2 -D3Pal^3 -Ser^4 -NMeTyr^5 -DLys(N-epsilon-Nic)^6 -Leu^7 -Lys(N-epsilon-Isopropyl)^8 -Pro^9 -DAla^10 NH2] ({d2Nal(N,N-(CH2)3CO)}-[dPhe(4-Cl)][d3Pal]S[NMeY][dK](Nicotinoyl)L[Lys(iPr)]P[dA]-NH2) | 0.0372 nM
CC(C)C[C@H](NC(=O)[C@@H](CCCCNC(=O)C1=C[C@@H](O)[C@@H](O)[C@H](O)C1)NC(=O)[C@H](Cc1ccc(O)cc1)N(C)C(=O)[C@H](CO)NC(=O)[C@@H](Cc1cccnc1)NC(=O)[C@@H](Cc1ccc(Cl)cc1)NC(=O)[C@@H](Cc1ccc2ccccc2c1)N1CCCCC1=O)C(=O)N[C@@H](CCCNC(=N)N)C(=O)N1CCC[C@H]1C(=O)N[C@H](C)C(N)=O [Example 8, 6LactD2Nal^1 -D4ClPhe^2 -D3Pal^3 -Ser^4 -NMeTyr^5 -DLys(N-epsilon-Shik)^6 -Leu^7 -Arg^8 -Pro^9 -DAla^10 NH2] ({d2Nal(N,N-C(O)(CH2)4)}-[dPhe(4-Cl)][d3Pal]S[NMeY][dK](Shikimoyl)LRP[dA]-NH2) | 0.0129 nM
CC(C)C[C@H](NC(=O)[C@@H](CCCCNC(=O)CNC(=O)C1=C[C@@H](O)[C@@H](O)[C@H](O)C1)NC(=O)[C@H](Cc1ccc(O)cc1)N(C)C(=O)[C@H](CO)NC(=O)[C@@H](Cc1cccnc1)NC(=O)[C@@H](Cc1ccc(Cl)cc1)NC(=O)[C@@H](Cc1ccc2ccccc2c1)N1CCCCC1=O)C(=O)N[C@@H](CCCNC(=N)N)C(=O)N1CCC[C@H]1C(=O)N[C@H](C)C(N)=O [Example 9, 6LactD2Nal^1 -D4ClPhe^2 -D3Pal^3 -Ser^4 -NMeTyr^5 -DLys(N-epsilon-Gly-Shik)^6 -Leu^7 -Arg^8 -Pro^9 -DAla^10 NH2] ({d2Nal(N,N-C(O)(CH2)4)}-[dPhe(4-Cl)][d3Pal]S[NMeY][dK]([Gly-Shikimoyl])LRP[dA]-NH2) | 0.0355 nM
CC(C)C[C@H](NC(=O)[C@@H](CCCCNC(=O)C1=C[C@@H](O)[C@@H](O)[C@H](O)C1)NC(=O)[C@H](Cc1ccc(O)cc1)N(C)C(=O)[C@H](CO)NC(=O)[C@@H](Cc1cccnc1)NC(=O)[C@@H](Cc1ccc(Cl)cc1)NC(=O)[C@@H](Cc1ccc2ccccc2c1)N1CCCCC1=O)C(=O)N[C@@H](CCCCNC(=N)N)C(=O)N1CCC[C@H]1C(=O)N[C@H](C)C(N)=O [Example 10, 6LactD2Nal^1 -D4ClPhe^2 -D3Pal^3 -Ser^4 -NMeTyr^5 -DLys(N-epsilon-Shik)^6 -Leu^7 -Harg^8 -Pro^9 -DAla^10 NH2] ({d2Nal(N,N-C(O)(CH2)4)}-[dPhe(4-Cl)][d3Pal]S[NMeY][dK](Shikimoyl)L[hArg]P[dA]-NH2) | 0.0209 nM
CC(C)C[C@H](NC(=O)[C@@H](CCCCNC(=O)CNC(=O)C1=C[C@@H](O)[C@@H](O)[C@H](O)C1)NC(=O)[C@H](Cc1ccc(O)cc1)N(C)C(=O)[C@H](CO)NC(=O)[C@@H](Cc1cccnc1)NC(=O)[C@@H](Cc1ccc(Cl)cc1)NC(=O)[C@@H](Cc1ccc2ccccc2c1)N1CCCCC1=O)C(=O)N[C@@H](CCCCNC(=N)N)C(=O)N1CCC[C@H]1C(=O)N[C@H](C)C(N)=O [Example 11, 6LactD2Nal^1 -D4ClPhe^2 -D3Pal^3 -Ser^4 -NMeTyr^5 -DLys(N-epsilon-Gly-Shik)^6 -Leu^7 -Harg^8 -Pro^9 -DAla^10 NH2] ({d2Nal(N,N-C(O)(CH2)4)}-[dPhe(4-Cl)][d3Pal]S[NMeY][dK]([Gly-Shikimoyl])L[hArg]P[dA]-NH2) | 0.0209 nM
CC(C)C[C@H](NC(=O)[C@@H](CCCCNC(N)=O)NC(=O)[C@H](Cc1ccc(O)cc1)NC(=O)[C@H](CO)NC(=O)[C@@H](Cc1cccnc1)NC(=O)[C@@H](Cc1ccc(Cl)cc1)NC(=O)[C@@H](Cc1ccc2ccccc2c1)N1CCCC1=O)C(=O)N[C@@H](CCCCNC(C)C)C(=O)N1CCC[C@H]1C(=O)N[C@H](C)C(N)=O [Example 12, 5LactD2Nal^1 -D4ClPhe^2 -D3Pal^3 -Ser^4 -Tyr^5 -DHcit^6 -Leu^7 -Lys(isp)^8 -Pro^9 -DAla^10NH2] ({d2Nal(N,N-(CH2)3CO)}-[dPhe(4-Cl)][d3Pal]SY[d(hCit)]L[Lys(iPr)]P[dA]-NH2) | 0.0178 nM
CC(C)C[C@H](NC(=O)[C@@H](CCCCNC(=O)c1cccnc1)NC(=O)[C@H](Cc1ccc(O)cc1)N(C)C(=O)[C@H](CO)NC(=O)[C@@H](Cc1cccnc1)NC(=O)[C@@H](Cc1ccc(Cl)cc1)NC(=O)[C@@H](Cc1ccc2ccccc2c1)N1CCCCC1=O)C(=O)N[C@@H](CCCCNC(C)C)C(=O)N1CCC[C@H]1C(=O)N[C@H](C)C(N)=O [Example 13, 6LactD2Nal^1 -D4ClPhe^2 -D3Pal^3 -Ser^4 -NMeTyr^5 -DLys(N-epsilon-Nic)^6 -Leu^7 -Lys(N-epsilon-Isopropyl)^8 -Pro^9 -DAla^10 NH2] ({d2Nal(N,N-C(O)(CH2)4)}-[dPhe(4-Cl)][d3Pal]S[NMeY][dK](Nicotinoyl)L[Lys(iPr)]P[dA]-NH2) | 0.0178 nM
CC(C)C[C@H](NC(=O)[C@@H](CCCNC(N)=O)NC(=O)[C@H](Cc1ccc(O)cc1)N(C)C(=O)[C@H](CO)NC(=O)[C@@H](Cc1cccc2ccccc12)NC(=O)[C@@H](Cc1ccc(Cl)cc1)NC(=O)CN1CCCC1=O)C(=O)N[C@@H](CCCNC(=N)N)C(=O)N1CCC[C@H]1C(=O)N[C@H](C)C(N)=O [Example 14, 5LactGly^1 -D4ClPhe^2 -D1Nal^3 -Ser^4 -NMeTyr^5 -DCit^6 -Leu^7 -Arg^8 -Pro^9 -DAla^10 NH2] ({Acetyl(2-oxopyrrolidin-1-yl)}-[dPhe(4-Cl)][d1Nal]S[NMeY][dCit]LRP[dA]-NH2) | 0.0178 nM
